Test results taken from ChEMBL document CHEMBL5584339, “Design, Synthesis, and Evaluation of the Antitubercular Activity of 5-Phenyl Substituted-5, 6-dihydropyrido[2, 3-d]pyrimidine-4, 7(3H, 8H)-dione Compounds” (J Med Chem, 2024).
≈ marks a conversion by molar mass, not a printed value. Calls of active or inactive are those of the source. The calls are words filed in the database; no cut-off is given here.

Columns and labels:
[1] = AUClast in BALB/c mouse at 30 mg/kg, po measured upto 24 hrs by LC-MS/MS analysis; format: ADME, organism-based; conditions: in vivo
[2] = Observed extrapolated AUC in BALB/c mouse at 30 mg/kg, po measured upto 24 hrs by LC-MS/MS analysis; format: ADME, organism-based; conditions: in vivo
[3] = Metabolic stability in human liver microsomes assessed as substrate remaining at 2 uM preincubated for 60 mins followed by NADPH addition and measured upto 60 mins by LC-MS analysis; format: ADME, Microsome; conditions: time < 120 min, read-out: Stability
[4] = Dose normalized AUClast in BALB/c mouse at 5 mg/kg, iv measured upto 24 hrs by LC-MS/MS analysis; format: ADME, organism-based; conditions: in vivo
[5] = AUClast in BALB/c mouse at 5 mg/kg, iv measured upto 24 hrs by LC-MS/MS analysis; format: ADME, organism-based; conditions: in vivo
[6] = Metabolic stability in human liver microsomes assessed as half-life at 2 uM preincubated for 60 mins followed by NADPH addition and measured upto 60 mins by LC-MS analysis; format: ADME, Microsome; conditions: time < 120 min
[7] = Observed extrapolated AUC in BALB/c mouse at 5 mg/kg, iv measured upto 24 hrs by LC-MS/MS analysis; format: ADME, organism-based; conditions: in vivo
[8] = Metabolic stability in human liver microsomes assessed as intrinsic clearance per mg protein at 2 uM preincubated for 60 mins followed by NADPH addition and measured upto 60 mins by LC-MS analysis; format: ADME, Microsome; conditions: time < 120 min, read-out: CLH
[9] = Metabolic stability in mouse liver microsomes assessed as intrinsic clearance per mg protein at 2 uM preincubated for 60 mins followed by NADPH addition and measured upto 60 mins by LC-MS analysis; format: ADME, Microsome; conditions: time < 120 min, read-out: CLH
[10] = system: Mycobacterium tuberculosis; experiment: Antitubercular activity against Mycobacterium tuberculosis H37Rv incubated for 7 days by alamar blue assay; format: functional; conditions: 168 h, time 7 day
[11] = target: Voltage-gated inwardly rectifying potassium channel KCNH2 (Homo sapiens, UniProt Q12809); experiment: Inhibition of human ERG expressed in HEK293 cells by whole cell manual patch clamp method; format: toxicity, cell-based
Chain of Voltage-gated inwardly rectifying potassium channel KCNH2 (Q12809 whole entry): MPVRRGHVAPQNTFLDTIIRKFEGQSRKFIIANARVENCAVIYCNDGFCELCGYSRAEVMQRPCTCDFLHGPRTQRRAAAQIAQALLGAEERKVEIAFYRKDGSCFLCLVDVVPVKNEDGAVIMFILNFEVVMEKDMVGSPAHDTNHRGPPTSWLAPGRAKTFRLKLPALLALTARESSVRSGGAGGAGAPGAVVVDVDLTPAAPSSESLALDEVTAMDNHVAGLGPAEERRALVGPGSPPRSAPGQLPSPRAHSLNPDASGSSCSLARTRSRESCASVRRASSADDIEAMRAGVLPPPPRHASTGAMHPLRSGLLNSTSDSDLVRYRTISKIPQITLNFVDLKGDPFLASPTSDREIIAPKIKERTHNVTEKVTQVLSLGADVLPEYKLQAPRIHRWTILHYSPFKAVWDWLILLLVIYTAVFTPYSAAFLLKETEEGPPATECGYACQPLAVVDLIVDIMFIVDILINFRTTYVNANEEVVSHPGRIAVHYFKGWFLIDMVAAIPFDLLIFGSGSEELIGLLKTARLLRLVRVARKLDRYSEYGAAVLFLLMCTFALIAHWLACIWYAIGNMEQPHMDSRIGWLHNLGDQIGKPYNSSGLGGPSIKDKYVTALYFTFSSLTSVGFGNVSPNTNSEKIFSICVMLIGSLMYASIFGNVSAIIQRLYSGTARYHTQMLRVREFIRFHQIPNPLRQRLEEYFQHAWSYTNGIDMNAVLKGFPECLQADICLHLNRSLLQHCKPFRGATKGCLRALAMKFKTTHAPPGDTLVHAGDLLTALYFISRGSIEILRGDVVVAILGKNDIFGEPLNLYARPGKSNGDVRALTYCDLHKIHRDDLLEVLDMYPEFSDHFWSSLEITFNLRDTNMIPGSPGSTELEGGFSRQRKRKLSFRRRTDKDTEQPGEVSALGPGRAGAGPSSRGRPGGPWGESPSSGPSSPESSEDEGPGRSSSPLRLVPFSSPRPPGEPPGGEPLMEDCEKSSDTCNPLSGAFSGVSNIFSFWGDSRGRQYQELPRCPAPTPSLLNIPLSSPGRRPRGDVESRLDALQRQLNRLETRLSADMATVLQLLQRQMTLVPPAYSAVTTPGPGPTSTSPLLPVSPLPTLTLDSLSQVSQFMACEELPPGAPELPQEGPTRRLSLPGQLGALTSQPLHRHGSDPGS

[12] = Dose normalized AUClast in BALB/c mouse at 30 mg/kg, po measured upto 24 hrs by LC-MS/MS analysis; format: ADME, organism-based; conditions: in vivo
[13] = Cytotoxicity against african green monkey Vero cells incubated for 48 hrs by CCK8 assay; format: toxicity, cell-based, Chlorocebus sabaeus
Mycobacterium marinum [14] = experiment: Antitubercular activity against Mycobacterium marinum infected in zebrafish larvae assessed as increase survival rate at 12.5 to 200 uM measured over 10 days by qPCR analysis; format: functional, organism-based; conditions: dose 12.5-200 µM, time 10.0 day
[15] = Half-life in BALB/c mouse at 30 mg/kg, po measured upto 24 hrs by LC-MS/MS analysis; format: ADME, organism-based; conditions: in vivo
[16] = Observed mean residence time infinity in BALB/c mouse at 5 mg/kg, iv measured upto 24 hrs by LC-MS/MS analysis; format: ADME, organism-based; conditions: in vivo
Mycobacterium marinum [17] = experiment: Antitubercular activity against Mycobacterium […] assessed as bactericidal effect by measuring colony forming unit at 200 uM measured over 10 days; format: functional; conditions: time 10 day
[18] = Tmax in BALB/c mouse at 30 mg/kg, po measured upto 24 hrs by LC-MS/MS analysis; format: ADME, organism-based; conditions: in vivo
Mycobacterium marinum [19] = experiment: Antitubercular activity against Mycobacterium marinum infected in adult zebrafish assessed as reduction in bacterial count by measuring CFU at 100 uM measured over 10 days; format: functional; conditions: time 10 day
[20] = AUCinfinity in BALB/c mouse at 30 mg/kg, po measured upto 24 hrs by LC-MS/MS analysis; format: ADME, organism-based; conditions: in vivo
Mycobacterium marinum [21] = experiment: Antitubercular activity against Mycobacterium […] assessed as bactericidal effect by measuring colony forming unit at 100 uM measured over 10 days; format: functional; conditions: time 10 day
[22] = Cmax in BALB/c mouse at 30 mg/kg, po measured upto 24 hrs by LC-MS/MS analysis; format: ADME, organism-based; conditions: in vivo
[23] = Cytotoxicity against HK-2 cells incubated for 48 hrs by CCK8 assay; format: toxicity, cell-based; conditions: human
[24] = Half-life in BALB/c mouse at 5 mg/kg, iv measured upto 24 hrs by LC-MS/MS analysis; format: ADME, organism-based; conditions: in vivo
[25] = Initial plasma concentration in BALB/c mouse at 5 mg/kg, iv measured upto 24 hrs by LC-MS/MS analysis; format: ADME, organism-based
[26] = Observed clearance in BALB/c mouse at 5 mg/kg, iv measured upto 24 hrs by LC-MS/MS analysis; format: ADME, organism-based; conditions: in vivo
[27] = Oral bioavailability in BALB/c mouse at 30 mg/kg measured upto 24 hrs by LC-MS/MS analysis; format: ADME, organism-based; conditions: in vivo
[28] = Metabolic stability in mouse liver microsomes assessed as half-life at 2 uM preincubated for 60 mins followed by NADPH addition and measured upto 60 mins by LC-MS analysis; format: ADME, Microsome; conditions: time < 120 min
[29] = AUCinfinity in BALB/c mouse at 5 mg/kg, iv measured upto 24 hrs by LC-MS/MS analysis; format: ADME, organism-based; conditions: in vivo
[30] = Observed mean residence time infinity in BALB/c mouse at 30 mg/kg, po measured upto 24 hrs by LC-MS/MS analysis; format: ADME, organism-based; conditions: in vivo
Mycobacterium marinum [31] = experiment: Antitubercular activity against Mycobacterium marinum infected in adult zebrafish assessed as reduction in bacterial count by measuring CFU at 200 uM measured over 10 days; format: functional; conditions: time 10 day
[32] = Metabolic stability in mouse liver microsomes assessed as substrate remaining at 2 uM preincubated for 60 mins followed by NADPH addition and measured upto 60 mins by LC-MS analysis; format: ADME, Microsome; conditions: time < 120 min, read-out: Stability
Mycobacterium marinum [33] = experiment: Antitubercular activity against Mycobacterium marinum infected in adult zebrafish assessed as reduction in bacterial count by measuring CFU at 50 uM measured over 10 days; format: functional; conditions: time 10 day
[34] = Observed volume of distribution at steady state in BALB/c mouse at 5 mg/kg, iv measured upto 24 hrs by LC-MS/MS analysis; format: ADME, organism-based; conditions: in vivo, read-out: Vdss
[35] = system: Mycobacterium tuberculosis; experiment: Binding affinity to Mycobacterium tuberculosis AccD5 at 10 uM by SPR analysis
[36] = Stability in mouse plasma by MS analysis; format: ADME, cell-free
[37] = Selectivity index, ratio of IC50 for african green monkey Vero cells to IC50 for Mycobacterium tuberculosis H37Rv; format: toxicity; conditions: read-out: Ratio IC50
Mycobacterium marinum [38] = experiment: Antitubercular activity against Mycobacterium marinum infected in adult zebrafish assessed as reduction in bacterial count by measuring CFU at 400 uM measured over 10 days; format: functional; conditions: time 10 day

| SMILES | AUC(0-t) at 24 h [1] | %AUCextra [2] | remaining at 1 h, 2 µM [3] | AUClast/dose [4] | AUC(0-t) at 24 h [5] | half-life at 2 µM [6] | %AUCextra [7] | microsomal CLint at 2 µM [8] | microsomal CLint at 2 µM [9] | MIC [10] | IC50 [11] | AUClast/dose [12] | IC50 at 48 h [13] | Activity (Mycobacterium marinum [14]) | half-life [15] | MRT inf [16] | Activity (Mycobacterium marinum [17]) | Tmax [18] | Activity (Mycobacterium marinum [19]) | AUC(0-inf) [20] | other results |
| --- | --- | --- | --- | --- | --- | --- | --- | --- | --- | --- | --- | --- | --- | --- | --- | --- | --- | --- | --- | --- | --- |
| CCCSc1nc2c(c(=O)[nH]1)[C@@H](c1ccc(OC)cc1)CC(=O)N2 | 410 µg·h/mL | 3.35% | 69.8% | 23295 kg·ng·h/mL/mg | 116 µg·h/mL | 120 min | 6.41% | 11.5 µL/min/mg | 3.75 µL/min/mg | 0.06 µg/mL (≈ 0.174 µM) | 24.4 µM | 13676 kg·ng·h/mL/mg | > 64 µg/mL | Active | 308 min | 7.8 h | <80 CFU | 30 min | 8 10^3CFU | 424 µg·h/mL | Activity (Mycobacterium marinum [21]): <80 CFU; Cmax [22]: 43300 ng/mL; IC50 at 48 h [23]: 32.5 µg/mL (≈ 94 µM); half-life [24]: 421 min; C0 at 24 h [25]: 45400 ng/mL; clearance [26]: 0.673 mL/min/kg; bioavailability [27]: 56.7%; half-life at 2 µM [28]: 370 min; AUC(0-inf) [29]: 125 µg·h/mL; MRT inf [30]: 6.85 h; Activity (Mycobacterium marinum [31]): 1.9 10^5CFU; remaining at 1 h, 2 µM [32]: 88.5%; Activity (Mycobacterium marinum [33]): 2 10^2CFU; Vd [34]: 0.312 L/kg |
| CCCSc1nc2c(c(=O)[nH]1)[C@@H](c1ccc(OC)cc1[N+](=O)[O-])CC(=O)N2 | 595 µg·h/mL | 11.2% | 83.3% | 26110 kg·ng·h/mL/mg | 131 µg·h/mL | 214 min | 25.2% | 6.47 µL/min/mg | 4.04 µL/min/mg | 3 µg/mL (≈ 7.68 µM) | > 30 µM | 19820 kg·ng·h/mL/mg | > 64 µg/mL | Active | 477 min | 16.4 h | <10 CFU | 25 min | 2.5 10^3CFU | 669 µg·h/mL | Activity [35]: Active; Activity (Mycobacterium marinum [21]): 80 CFU; Cmax [22]: 54000 ng/mL; IC50 at 48 h [23]: 41.1 µg/mL (≈ 105 µM); half-life [24]: 786 min; C0 at 24 h [25]: 32300 ng/mL; clearance [26]: 0.5 mL/min/kg; bioavailability [27]: 63.8%; half-life at 2 µM [28]: 343 min; AUC(0-inf) [29]: 175 µg·h/mL; MRT inf [30]: 10.1 h; Stability [36]: Stable; Activity (Mycobacterium marinum [31]): 1.6 10^4CFU; remaining at 1 h, 2 µM [32]: 86.2%; Activity (Mycobacterium marinum [33]): 1 10^2CFU; Vd [34]: 0.488 L/kg |
| CO[C@H]1/C=C/O[C@@]2(C)Oc3c(C)c(O)c4c(O)c(c(/C=N/N5CCN(C)CC5)c(O)c4c3C2=O)NC(=O)/C(C)=C\C=C\[C@H](C)[C@H](O)[C@@H](C)[C@@H](O)[C@@H](C)[C@H](OC(C)=O)[C@@H]1C [RIFAMPIN] | – | – | – | – | – | – | – | – | – | 0.02 µg/mL (≈ 0.0243 µM) | – | – | > 100 µg/mL | – | – | – | – | – | 4 10^4CFU | – | selectivity ratio [37]: > 5000; Activity (Mycobacterium marinum [38]): 1.5 10^2CFU |
